The target in assay [1] is T1, DYRK1A (Homo sapiens, UniProt Q13627).
T1 construct: purchased ProQinase (Freiburg, Germany)
Nature of the assay: SF3B1 Thr434 phosphorylation in HeLa cells (immunoblot). Format: cell-based. Conditions: HeLa cells expressing GFP-SF3B1-NT, 18 h. On the procedure: Fig 4 Inhibition of SF3B1 phosphorylation by DYRK1A in HeLa cells. HeLa cells expressing GFP-SF3B1-NT were treated with the indicated compounds for 18 h. The phosphorylation state of SF3B1 was determined by immunoblotting with pT434 antibody, and the results were normalized to the total amount of SF3B1 immunoreactivity. A, Representative western blots. […] The vertical line indicates where irrelevant lanes were deleted from the final image. B, The column diagram summarizes the quantitative evaluation of 3–6 experiments for each compound (means + SD).
(500 ng/well) using FuGENE HD (Promega, Mannheim, Germany).
For orientation: In western blotting, separated proteins are transferred to a membrane and probed.

The target of another assay is DYRK1B (Homo sapiens, UniProt Q9Y463). On the set-up: purchased ProQinase (Freiburg, Germany). Conditions: 10 μM; cited from earlier work.
In another assay the target is T2, CLK2 (Homo sapiens, UniProt P49760).
T2 construct: purchased ProQinase (Freiburg, Germany)
Particulars: 10 μM; cited from earlier work.

A further assay addresses CLK1 (Homo sapiens, UniProt P49759). On the set-up: purchased ProQinase (Freiburg, Germany). Particulars: 10 μM; cited from earlier work.
For another assay, the target named is T3, CLK3 (Homo sapiens, UniProt P49761).
T3 construct: purchased ProQinase (Freiburg, Germany)
Particulars: 10 μM; cited from earlier work.

A further assay concerns the target PIM2 (Homo sapiens, UniProt Q9P1W9). Details: purchased ProQinase (Freiburg, Germany). Particulars: 10 μM; cited from earlier work.
The next assay deals with T4, DYRK2 (Homo sapiens, UniProt Q92630).
T4 construct: purchased ProQinase (Freiburg, Germany)
T4 sequence (Q92630 1-601): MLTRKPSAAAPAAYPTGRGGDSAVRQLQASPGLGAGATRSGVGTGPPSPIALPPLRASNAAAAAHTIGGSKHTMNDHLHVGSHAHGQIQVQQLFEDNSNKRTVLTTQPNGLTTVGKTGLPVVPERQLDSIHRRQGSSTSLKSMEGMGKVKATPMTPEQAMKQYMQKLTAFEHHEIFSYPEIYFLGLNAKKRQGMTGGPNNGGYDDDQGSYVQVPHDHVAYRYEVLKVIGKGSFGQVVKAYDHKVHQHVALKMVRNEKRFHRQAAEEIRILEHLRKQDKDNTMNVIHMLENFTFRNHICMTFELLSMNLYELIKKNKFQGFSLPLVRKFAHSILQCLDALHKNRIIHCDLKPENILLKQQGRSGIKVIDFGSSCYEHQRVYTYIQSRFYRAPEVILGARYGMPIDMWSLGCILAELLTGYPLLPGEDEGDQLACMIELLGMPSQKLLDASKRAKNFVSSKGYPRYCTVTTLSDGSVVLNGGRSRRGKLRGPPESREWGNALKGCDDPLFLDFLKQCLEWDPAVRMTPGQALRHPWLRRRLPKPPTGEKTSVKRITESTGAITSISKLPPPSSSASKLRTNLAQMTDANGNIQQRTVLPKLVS
Particulars: 10 μM; cited from earlier work.

The next assay addresses HIPK2 (Homo sapiens, UniProt Q9H2X6). Details: purchased ProQinase (Freiburg, Germany). Particulars: 10 μM; cited from earlier work.
The target of another assay is IRAK1 (Homo sapiens, UniProt P51617). Details: purchased ProQinase (Freiburg, Germany). Particulars: 10 μM; cited from earlier work.
For assay [2], the system named is DYRK1A. Conditions: cited from earlier work.
Another assay concerns the target PIM3 (Homo sapiens, UniProt Q86V86). On the set-up: purchased ProQinase (Freiburg, Germany). Particulars: 10 μM; cited from earlier work.
The subject of the next assay is Haspin. Conditions: 10 μM; cited from earlier work.
A further assay addresses HIPK1 (Homo sapiens, UniProt Q86Z02). Details: purchased ProQinase (Freiburg, Germany). Conditions: 10 μM; cited from earlier work.
A further assay deals with PIM1 (Homo sapiens, UniProt P11309). On the set-up: purchased ProQinase (Freiburg, Germany). Particulars: 10 μM; cited from earlier work.
In a further assay the target is T5, HIPK4 (Homo sapiens, UniProt Q8NE63).
T5 sequence (Q8NE63 1-616): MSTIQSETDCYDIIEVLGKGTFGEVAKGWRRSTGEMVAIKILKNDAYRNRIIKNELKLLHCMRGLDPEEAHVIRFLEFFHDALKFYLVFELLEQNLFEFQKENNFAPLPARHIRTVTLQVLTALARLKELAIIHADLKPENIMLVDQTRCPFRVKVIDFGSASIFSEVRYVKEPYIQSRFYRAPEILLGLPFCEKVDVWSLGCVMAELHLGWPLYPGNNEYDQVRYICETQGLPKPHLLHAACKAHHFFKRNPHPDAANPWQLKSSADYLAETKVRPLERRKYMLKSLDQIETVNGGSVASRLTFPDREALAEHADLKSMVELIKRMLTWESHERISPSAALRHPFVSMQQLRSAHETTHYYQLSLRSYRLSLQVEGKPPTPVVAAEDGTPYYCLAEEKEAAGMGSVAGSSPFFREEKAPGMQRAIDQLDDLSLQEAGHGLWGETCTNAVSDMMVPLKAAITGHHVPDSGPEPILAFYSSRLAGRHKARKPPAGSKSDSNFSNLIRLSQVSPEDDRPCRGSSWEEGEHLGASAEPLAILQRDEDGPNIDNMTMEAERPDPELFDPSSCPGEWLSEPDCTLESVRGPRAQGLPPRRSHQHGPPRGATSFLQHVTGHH
On the set-up: purchased ProQinase (Freiburg, Germany). Particulars: 10 μM; cited from earlier work.

A further assay deals with T6, DYRK3 (Homo sapiens, UniProt O43781).
T6 construct: purchased ProQinase (Freiburg, Germany)
T6 sequence (O43781 1-588): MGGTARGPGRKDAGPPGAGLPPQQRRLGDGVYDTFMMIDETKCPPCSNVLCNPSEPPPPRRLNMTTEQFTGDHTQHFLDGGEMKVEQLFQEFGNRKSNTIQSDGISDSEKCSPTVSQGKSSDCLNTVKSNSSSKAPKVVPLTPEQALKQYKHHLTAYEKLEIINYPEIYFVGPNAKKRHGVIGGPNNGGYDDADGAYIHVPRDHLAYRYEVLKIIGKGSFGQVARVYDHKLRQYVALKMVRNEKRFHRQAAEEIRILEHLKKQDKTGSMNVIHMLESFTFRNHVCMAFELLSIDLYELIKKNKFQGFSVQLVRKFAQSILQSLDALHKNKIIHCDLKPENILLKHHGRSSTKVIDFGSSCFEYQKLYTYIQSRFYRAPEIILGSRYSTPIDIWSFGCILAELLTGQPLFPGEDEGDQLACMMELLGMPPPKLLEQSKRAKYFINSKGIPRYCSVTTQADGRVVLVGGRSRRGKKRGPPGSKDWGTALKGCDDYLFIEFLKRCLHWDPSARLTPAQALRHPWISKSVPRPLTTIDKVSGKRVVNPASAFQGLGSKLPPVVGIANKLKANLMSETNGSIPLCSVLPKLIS
Particulars: 10 μM; cited from earlier work.

Another assay has as its target HIPK3 (Homo sapiens, UniProt Q9H422). On the set-up: purchased ProQinase (Freiburg, Germany). Conditions: 10 μM; cited from earlier work.
The next assay has as its system MAO-A. On the set-up: method as in PMID 25240617. Particulars: 1 μM; cited from earlier work.

Sequence of IRAK1 (P51617 whole entry): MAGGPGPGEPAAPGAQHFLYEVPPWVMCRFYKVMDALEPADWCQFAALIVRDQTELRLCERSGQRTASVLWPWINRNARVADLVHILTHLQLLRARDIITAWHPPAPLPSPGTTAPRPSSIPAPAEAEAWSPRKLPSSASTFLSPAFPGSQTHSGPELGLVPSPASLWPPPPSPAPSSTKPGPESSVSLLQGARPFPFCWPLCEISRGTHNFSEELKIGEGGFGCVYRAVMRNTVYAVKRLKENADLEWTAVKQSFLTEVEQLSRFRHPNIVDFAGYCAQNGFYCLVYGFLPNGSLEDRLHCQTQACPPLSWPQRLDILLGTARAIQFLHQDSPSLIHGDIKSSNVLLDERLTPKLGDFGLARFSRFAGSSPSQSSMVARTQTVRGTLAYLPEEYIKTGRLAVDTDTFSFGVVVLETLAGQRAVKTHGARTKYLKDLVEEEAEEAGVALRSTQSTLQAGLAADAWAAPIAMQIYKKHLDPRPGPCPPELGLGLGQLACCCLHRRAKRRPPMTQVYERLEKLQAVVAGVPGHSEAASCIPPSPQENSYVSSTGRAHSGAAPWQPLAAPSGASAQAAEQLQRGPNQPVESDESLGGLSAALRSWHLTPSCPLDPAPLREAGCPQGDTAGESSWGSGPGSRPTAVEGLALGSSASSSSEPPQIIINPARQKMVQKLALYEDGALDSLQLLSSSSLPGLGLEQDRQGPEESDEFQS
Sequence of HIPK3 (Q9H422 whole entry): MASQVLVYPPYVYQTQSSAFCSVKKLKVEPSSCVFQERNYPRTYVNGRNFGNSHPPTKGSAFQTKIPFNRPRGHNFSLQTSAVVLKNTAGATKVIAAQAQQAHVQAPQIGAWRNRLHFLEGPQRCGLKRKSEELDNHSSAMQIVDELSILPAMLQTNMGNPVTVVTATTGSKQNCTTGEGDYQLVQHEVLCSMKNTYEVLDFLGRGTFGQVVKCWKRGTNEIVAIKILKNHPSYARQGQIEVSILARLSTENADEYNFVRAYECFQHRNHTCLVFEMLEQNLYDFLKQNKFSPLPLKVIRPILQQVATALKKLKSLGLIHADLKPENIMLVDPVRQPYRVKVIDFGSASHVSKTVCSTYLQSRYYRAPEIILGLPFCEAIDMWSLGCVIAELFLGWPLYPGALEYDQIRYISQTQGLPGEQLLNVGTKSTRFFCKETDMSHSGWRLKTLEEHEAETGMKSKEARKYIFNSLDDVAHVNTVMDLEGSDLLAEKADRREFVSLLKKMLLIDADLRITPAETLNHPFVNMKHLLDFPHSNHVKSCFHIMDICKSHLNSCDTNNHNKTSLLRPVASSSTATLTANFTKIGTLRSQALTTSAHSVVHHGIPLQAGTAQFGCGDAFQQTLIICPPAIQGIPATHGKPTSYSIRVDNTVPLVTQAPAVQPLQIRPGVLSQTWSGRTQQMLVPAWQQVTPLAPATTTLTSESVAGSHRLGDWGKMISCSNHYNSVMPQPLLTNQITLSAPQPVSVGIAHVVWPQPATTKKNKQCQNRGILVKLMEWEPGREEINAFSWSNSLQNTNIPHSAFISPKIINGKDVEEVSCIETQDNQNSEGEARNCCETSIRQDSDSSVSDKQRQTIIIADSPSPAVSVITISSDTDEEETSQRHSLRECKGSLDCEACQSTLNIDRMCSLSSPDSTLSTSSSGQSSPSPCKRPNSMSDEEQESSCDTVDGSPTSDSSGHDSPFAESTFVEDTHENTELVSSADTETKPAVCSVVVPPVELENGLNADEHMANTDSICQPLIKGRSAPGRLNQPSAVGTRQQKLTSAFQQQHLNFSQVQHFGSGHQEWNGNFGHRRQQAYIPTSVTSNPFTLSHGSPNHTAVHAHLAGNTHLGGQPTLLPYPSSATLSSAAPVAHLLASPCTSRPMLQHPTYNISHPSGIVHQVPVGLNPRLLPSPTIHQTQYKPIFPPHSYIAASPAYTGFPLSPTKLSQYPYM
T2 sequence (P49760 whole entry): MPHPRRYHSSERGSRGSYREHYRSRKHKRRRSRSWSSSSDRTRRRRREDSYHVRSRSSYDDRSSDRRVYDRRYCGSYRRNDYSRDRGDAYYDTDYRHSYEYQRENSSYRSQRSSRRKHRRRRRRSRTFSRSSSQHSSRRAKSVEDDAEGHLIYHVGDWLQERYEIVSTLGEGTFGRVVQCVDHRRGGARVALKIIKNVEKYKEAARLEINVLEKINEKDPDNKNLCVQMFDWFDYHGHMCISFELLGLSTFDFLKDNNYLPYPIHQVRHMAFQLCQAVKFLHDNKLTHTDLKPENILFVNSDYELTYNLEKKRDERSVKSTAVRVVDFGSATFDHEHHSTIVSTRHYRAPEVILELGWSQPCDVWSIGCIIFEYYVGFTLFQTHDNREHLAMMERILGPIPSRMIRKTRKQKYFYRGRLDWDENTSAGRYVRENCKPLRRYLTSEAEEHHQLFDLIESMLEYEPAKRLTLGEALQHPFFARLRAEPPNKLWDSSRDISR
Sequence of HIPK1 (Q86Z02 whole entry): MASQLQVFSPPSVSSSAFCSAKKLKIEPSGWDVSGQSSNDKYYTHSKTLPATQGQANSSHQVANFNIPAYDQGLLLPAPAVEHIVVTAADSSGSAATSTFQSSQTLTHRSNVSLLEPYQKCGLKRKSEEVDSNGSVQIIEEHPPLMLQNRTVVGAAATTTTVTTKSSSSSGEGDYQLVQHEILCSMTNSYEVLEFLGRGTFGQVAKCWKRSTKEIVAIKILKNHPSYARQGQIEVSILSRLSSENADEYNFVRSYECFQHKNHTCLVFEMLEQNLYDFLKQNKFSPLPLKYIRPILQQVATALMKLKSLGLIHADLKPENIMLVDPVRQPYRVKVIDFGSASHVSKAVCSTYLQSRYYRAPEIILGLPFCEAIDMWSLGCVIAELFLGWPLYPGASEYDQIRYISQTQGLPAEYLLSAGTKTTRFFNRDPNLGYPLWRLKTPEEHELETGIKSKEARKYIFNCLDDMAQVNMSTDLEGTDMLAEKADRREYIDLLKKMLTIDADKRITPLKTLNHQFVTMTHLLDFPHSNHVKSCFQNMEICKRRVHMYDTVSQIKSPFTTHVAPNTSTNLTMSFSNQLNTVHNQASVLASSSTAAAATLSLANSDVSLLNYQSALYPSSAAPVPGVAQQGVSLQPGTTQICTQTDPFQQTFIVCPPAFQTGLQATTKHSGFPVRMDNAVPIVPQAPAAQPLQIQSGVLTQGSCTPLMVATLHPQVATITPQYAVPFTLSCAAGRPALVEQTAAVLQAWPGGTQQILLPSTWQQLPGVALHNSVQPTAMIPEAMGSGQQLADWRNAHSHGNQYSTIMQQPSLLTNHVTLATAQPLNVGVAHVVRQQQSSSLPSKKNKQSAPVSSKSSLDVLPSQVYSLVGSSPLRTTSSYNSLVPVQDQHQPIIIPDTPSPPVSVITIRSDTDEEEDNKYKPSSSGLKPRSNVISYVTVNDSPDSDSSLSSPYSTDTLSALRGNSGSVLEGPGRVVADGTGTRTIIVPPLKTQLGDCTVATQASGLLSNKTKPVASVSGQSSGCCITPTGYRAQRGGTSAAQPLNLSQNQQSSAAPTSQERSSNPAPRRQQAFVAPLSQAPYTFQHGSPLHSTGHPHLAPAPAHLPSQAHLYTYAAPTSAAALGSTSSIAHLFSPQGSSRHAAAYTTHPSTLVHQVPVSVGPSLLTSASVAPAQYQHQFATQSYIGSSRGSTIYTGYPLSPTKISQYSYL
Sequence of PIM2 (Q9P1W9 whole entry): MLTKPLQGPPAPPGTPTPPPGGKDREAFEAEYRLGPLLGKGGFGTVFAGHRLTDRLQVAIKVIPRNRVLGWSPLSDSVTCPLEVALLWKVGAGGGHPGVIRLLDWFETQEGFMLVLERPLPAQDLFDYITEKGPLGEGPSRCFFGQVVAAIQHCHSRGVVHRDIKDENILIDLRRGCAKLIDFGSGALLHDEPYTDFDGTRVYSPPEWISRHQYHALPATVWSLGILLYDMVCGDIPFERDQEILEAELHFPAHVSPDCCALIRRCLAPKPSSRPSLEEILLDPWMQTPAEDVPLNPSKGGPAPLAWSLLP
Sequence of CLK1 (P49759 whole entry): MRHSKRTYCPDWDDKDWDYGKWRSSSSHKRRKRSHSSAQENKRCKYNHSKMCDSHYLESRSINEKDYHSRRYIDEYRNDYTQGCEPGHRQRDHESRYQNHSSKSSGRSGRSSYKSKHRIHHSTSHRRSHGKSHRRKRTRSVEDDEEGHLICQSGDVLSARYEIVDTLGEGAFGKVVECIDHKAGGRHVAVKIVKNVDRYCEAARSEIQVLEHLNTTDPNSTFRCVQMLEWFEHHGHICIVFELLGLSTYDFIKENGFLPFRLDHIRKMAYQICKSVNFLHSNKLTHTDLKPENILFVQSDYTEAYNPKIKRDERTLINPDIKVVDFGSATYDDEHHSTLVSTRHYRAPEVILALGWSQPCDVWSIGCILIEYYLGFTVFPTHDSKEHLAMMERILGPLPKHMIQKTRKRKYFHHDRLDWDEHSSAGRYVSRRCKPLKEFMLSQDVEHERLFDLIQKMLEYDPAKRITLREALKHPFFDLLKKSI

For `N#CCn1c2c(Br)nccc2c2ccc(Cl)c(Cl)c21` [AnnH79], the “inhibition of DYRK1A-catalysed SF3B1 Thr434 phosphorylation” value on DYRK1A [1] is given as “does not inhibit DYRK1A”.
In the case of `COc1ccc2c3ccnc(C(F)(F)F)c3n(CCCCN)c2c1` [LDN-211898], the “Residual activity (% of control)” value is recorded as 2 % of control on DYRK1B; 1 % of control on CLK2; 0 % of control on CLK1; 63 % of control at CLK3; 36 % of control at PIM2; 14 % of control at DYRK2. The “Residual activity (% of control)” value at HIPK2 was 47 % of control; at IRAK1 it was 47 % of control; in the assay with DYRK1A [2] (10 μM) it was 0 % of control; at PIM3, 11 % of control; in the assay on Haspin, 0 % of control; at HIPK1, 59 % of control. The “Residual activity (% of control)” value is listed as 9 % of control at PIM1, 72 % of control on HIPK4, 3 % of control on DYRK3 and 51 % of control on HIPK3.
On to `CCCCCCCn1c2cc(OC)ccc2c2ccnc(C)c21` [N9-heptyl harmine], for which the “inhibition of DYRK1A” value in the assay on DYRK1A [2] (1 μM) was 85%. Moreover, in the assay with MAO-A, the “inhibition of MAO-A” value is 13%.

The values above are taken from publication PMC4508061, “Selectivity Profiling and Biological Activity of Novel β-Carbolines as Potent and Selective DYRK1 Kinase Inhibitors” (PLoS ONE, 2015).
